Measurements as given in US5134150A, “Inhibition of the 5-lipoxygenase pathway” (priority 1989, dated 1992).

Experiments:
[1] = tested on: Arachidonic Acid-Induced Inflammation of the Mouse Ear; assay: Arachidonic acid-induced mouse ear inflammation; format: in vivo, mouse (male Balb/c); details: for Mouse ear edema, result in words: in vivo
From the text: (§1) In the following Examples where mice were used, they were male Balb/c mice (20-28 g), and where rats were used, they were male Lewis rats (180-210 g). All mice and rats were obtained from Charles River Breeding Laboratories, Kingston, N.Y. Within a single experiment, mice and rats were sex and age matched.
(§2) The compounds of Formula (I) were used either as the free base or in the appropriate salt form. Levamisole was used as the hydrochloride salt. The compounds were homogenized in 0.5% tragacanth. Compounds were administered by gavage at the indicated dose in a final volume of 10 ml/kg. Nordihydroguaiaretic acid (NDGA) was solubilized in dimethylacetamide and diluted with olive oil for subcutaneous administration.
Arachidonic acid in acetone ([…]) was applied to the inner surface of the left ear. The thickness of both ears was then measured with a dial micrometer one hour after treatment, and the data were expressed as the change in thickness (10^-3 cm) between treated and untreated ears.
Test compounds were given orally in 0.5% tragacanth at the times indicated in the text prior to the topical application of arachidonic acid.
Parenteral administration of compound was accomplished by subcutaneous injection of solution as indicated.

[2] = tested on: Carrageenan-Induced Cellular Infiltration into the Rat Air Pouch; assay: Carrageenan-induced air pouch inflammation; format: in vivo, rat (male Lewis); details: for Cell infiltration into carrageenan air pouch, result in words: rat, in vivo
From the text: as §1, §2
Rats were shaved on the dorsal flank, and then injected subcutaneously one day later with 20 ml of air to form a defined pouch, by the method of Sedgwick et al., J. Pathology, 141, 483-495 (1983). The air pouch was reinflated as necessary over the next 6 days. To assay anti-inflammatory activity, animals were treated orally with test compound or vehicle (10 ml/kg) one hour before injection of 2.0 ml of a 2.0% carrageenan suspension containing […] penicillin and 100 µg/ml streptomycin into the air pouch. In other experiments, 5 ml of 0.1% arachidonic acid in 0.2M bicarbonate buffer was injected two hours after drug treatment. Animals were sacrificed using CO2 three hours after instillation of irritant. The exudate was then aspirated from the pouch and neutrophil count and differential cell count were measured.

[3] = molecular target: T1, 5-Lipoxygenase (Rattus norvegicus, UniProt P12527); assay: 5-HETE production by high speed supernatant of RBL-1 cells; format: biochemical
T1 construct: The activities of these enzymes in extracts of RBL-1 cells were assayed; host or cells: RBL-1
T1 sequence (P12527 1-673): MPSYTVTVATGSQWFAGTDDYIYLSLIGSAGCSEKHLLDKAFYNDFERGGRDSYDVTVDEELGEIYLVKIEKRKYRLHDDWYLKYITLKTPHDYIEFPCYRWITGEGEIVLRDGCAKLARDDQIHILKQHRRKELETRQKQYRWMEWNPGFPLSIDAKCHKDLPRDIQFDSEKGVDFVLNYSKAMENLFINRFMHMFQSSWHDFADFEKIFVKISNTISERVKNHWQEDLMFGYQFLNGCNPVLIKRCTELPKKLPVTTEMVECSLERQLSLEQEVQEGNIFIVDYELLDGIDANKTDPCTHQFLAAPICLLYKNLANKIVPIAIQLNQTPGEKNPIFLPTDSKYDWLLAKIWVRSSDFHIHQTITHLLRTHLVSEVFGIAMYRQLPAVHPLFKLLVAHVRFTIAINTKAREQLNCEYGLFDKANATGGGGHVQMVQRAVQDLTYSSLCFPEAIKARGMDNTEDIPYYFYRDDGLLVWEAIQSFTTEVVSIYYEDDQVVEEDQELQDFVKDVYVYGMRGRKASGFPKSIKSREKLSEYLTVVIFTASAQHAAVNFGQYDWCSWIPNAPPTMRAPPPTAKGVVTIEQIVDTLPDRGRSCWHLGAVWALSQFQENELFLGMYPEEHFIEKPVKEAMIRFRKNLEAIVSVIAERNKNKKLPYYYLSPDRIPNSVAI
Procedure: For in vitro experiments, compounds were dissolved at appropriate concentrations in ethanol or DMSO (dimethylsulfoxide) (final concentration≤1.0%) and then diluted to final concentrations using the buffers indicated in the text.
The activities of these enzymes in extracts of RBL-1 cells were assayed using the method of Jakschik and Lee, Nature, 287, 51-52 (1980). RBL-1 cells were obtained from the American Type Culture Collection (#CRL 1378) and were grown at 37° C. (5% CO2 in air) in spinner culture in MEM supplemented with 10% heat inactivated fetal calf serum. Harvested cells were washed with 50 mM sodium phosphate buffer, pH 7.0, containing 1 mM EDTA and 0.1% gelatin, resuspended in fresh buffer (5×10^7 cells/ml) and disrupted by nitrogen cavitation using the Parr bomb at 750 psi for 10 min. The broken cell extract was then centrifuged at 10,000× g for 20 minutes (min) and the supernatant centrifuged at 100,000 xIg for 60 min. Aliquots (0.25 mls) of the supernatant were preincubated with or without drugs for 10 min, after which 10 μl CaCl2 (50 mM) was added and the reaction was initiated with 2.5 μl of 2.5 mM arachidonic acid-1-^14 C (final concentration was 25 μM; specific activity 20,000 dpm/nmole). After incubation for 3 min at 37° C., the reaction was terminated by addition of 2 volumes (0.5 ml) ice cold acetone and the sample was allowed to deproteinize on ice for 10 min prior to centrifugation at 1,000× g for 10 min. The deproteinized supernatant was adjusted to pH 3.5 with 2N formic acid and extracted with 2 volumes of ice cold ethyl acetate. The extracted samples were dried under argon, redissolved in ethyl acetate and applied to Whatman LK5D thin layer chromatography (TLC) plates which were developed using the A-9 solvent system [organic phase of ethyl acetate: 2,2,5-trimethylpentane:acetic acid: water (110:50:20:10)] described by Hamberg and Samuelsson, J. Biol. Chem., 241, 257-263 (1966). Arachidonic acid, 5-HETE, LTB4 and PGD2 were quantified with a Berthold LB 2832 autoscanner.
The 5-lipoxygenase and LTA4 synthetase activities were further studied under the following conditions. An additional centrifugation of the RBL-1 supernatant was run at 100,000× g for 60 min, to remove the particulate cyclooxygenase activity. Sample incubation was done under conditions similar to those described above, i.e., 2 mM CaCl2 and […] arachidonic acid-1-^14 C, however, with an incubation time of 5 min at 5° C. Under these conditions, only the 5-lipoxygenase pathway metabolites were detectable. The 5-HETE and di-HETEs were formed at a linear rate, and substantial amounts of the arachidonic acid-1-^14 C substrate were utilized.

| Structure (SMILES) | Increase in Ear Thickness at 1 Hour ([1]; 50 mg/kg, p.o.) | Mouse ear edema, result in words [1] | Cellular Infiltrate MN ([2]; 100 mg/kg) | Cellular Infiltrate PMN ([2]; 100 mg/kg) | Exudate Volume ([2]; 100 mg/kg) | Cell infiltration into carrageenan air pouch, result in words [2] | 5-HETE ([3]; 1 μM) | 5-HETE ([3]; 3.3 μM) | 5-HETE ([3]; 10 μM) | 5-HETE ([3]; 33 μM) | 5-HETE ([3]; 100 μM) | % Change (ear thickness) ([1]; 10 mg/kg, p.o.) | Increase in Ear Thickness at 1 Hour ([1]; 10 mg/kg, p.o.) | Cellular Infiltrate MN ([2]; 5 mg/kg) | Cellular Infiltrate PMN ([2]; 5 mg/kg) | Exudate Volume ([2]; 5 mg/kg) |
| --- | --- | --- | --- | --- | --- | --- | --- | --- | --- | --- | --- | --- | --- | --- | --- | --- |
| Fc1ccc(-c2nc3n(c2-c2ccncc2)CCS3)cc1 [Compound 1] | 10.0 ± 1.5 × 10-3 cm | marked inhibition of the edematous response | 5.5 ± 3.8 Total × 10^-6 | 2.6 ± 1.3 Total × 10^-6 | 1.0 ± 0.9 mL | significant inhibition of polymorphonuclear leukocyte infiltration | 8.86 ± 0.31 nM/ml | 7.63 ± 0.44 nM/ml | 5.57 ± 0.35 nM/ml | 3.36 ± 0.07 nM/ml | 1.08 ± 0.13 nM/ml | – | – | – | – | – |
| COc1ccc2c(c1)c(CC(=O)O)c(C)n2C(=O)c1ccc(Cl)cc1 [Indomethacin] | – | did not exhibit detectable anti-inflammatory activity | – | – | – | reduction in the PMN count and the PMN:mononuclear cell ratio | – | – | – | – | – | -5% | 24.4 ± 0.8 × 10-3 cm | 4.0 ± 0.8 Total × 10^-6 | 2.8 ± 0.7 Total × 10^-6 | 2.0 ± 0.5 mL |
